Reference: patent publication US9464082B2, “Aryl and arylalkyl substituted pyrazolyl and pyrimidinyl tricyclic enones as antioxidant inflammation modulators” (AbbVie Inc., priority 2014, dated 2016)

Tested on: IFNγ-Induced NO Production
Experiment: Nitric Oxide Suppression Assay (Suppression of IFNγ-Induced NO Production)
Assay type: cell-based
Conditions: RAW264.7; RAW 264.7 mouse macrophage cells; 2 hour pre-treatment with compound (3 μM to 0.3 nM, 10 point curve); 20 ng/mL interferon gamma, ~18 hour; Griess detection; n=2-3 in duplicates
Protocol: RAW 264.7, a mouse macrophage cell line, was obtained from American Type Culture Collection (Manassas Va.) and maintained in the log phase of growth in Dulbecco's Modified Eagle's Medium (DMEM), 10% heat inactivated fetal calf serum and 100 units/mL antibiotic-antimycotic (AA). Cells were cultured and maintained in a humidified incubator at 37° C. under 5% CO2 and 95% air. Cells were sub-cultured every 3 days by scraping and were not used beyond passage 20. All cell culture supplies were obtained from Life Technologies (Grand Island, N.Y.).
RAW 264.7 cells were plated 1 day in advance of experiment at a concentration of 80,000 cells/well onto CellBIND® 96 well plates (Corning, N.Y.) in a total volume of 100 μL. The next day, pre-treat cells with compounds (from 3 μM to 0.3 nM serially diluted in a 10 point curve) from a 10× stock by adding 10 μL per well in complete DMEM media containing 10% fetal calf serum. The plates were centrifuged for 3 minutes at 400×g at room temperature followed by 2 hour incubation at 37° C. The cells were then incubated overnight at 37° C. with 10 μL of the insult, interferon gamma (R&D Systems, Minneapolis, Minn.), from a 10× stock for a final concentration of 20 ng/mL. The plates were centrifuged for 3 minutes at 400×g at room temperature followed by ˜18 hour incubation at 37° C. The following day, transfer 50 μL cell culture supernatant from each well into a clear bottom 96 well plate and follow the instructions from Promega's Griess Detection Kit #G2930 (Madison, Wis.) which involves the addition of 50 μL of the provided sulfanilamide solution for a 5-10 minute incubation at room temperature. Next add 50 μL of the provided N-1-napthylethylenediamine dihydrochloride (NED) solution for a 5-10 minute incubation at room temperature and protected from light. If any air bubbles were introduced into the well, the plates need to be centrifuged for 5 minutes at 400×g at room temperature to avoid interference with absorbance readings. The plates were read for absorbance within 30 minutes with a filter between 520 nm and 550 nm.
For the ability of compounds to suppress the increase in nitric oxide release, the percent maximal intensity of nitric oxide detected in each well was normalized to that induced by the peak value for 20 ng/mL of interferon gamma alone and plotted against the compound concentration to calculate IC50 values and to control for plate-to-plate variability. Concentration-response data were analyzed using GraphPad Prism (San Diego, Calif.); the IC50 values were derived from a single curve fit to the mean data of n=2-3, in duplicates.
All compounds were dissolved in dimethyl sulfoxide at 10 mM stock solutions and tested at a concentration that the dimethyl sulfoxide levels never exceeded 1%.

SMILES | IC50
COC(=O)c1ccc(-c2ncc3c(n2)[C@@]2(c4cccc(C(=O)OC)c4)C=C(C#N)C(=O)[C@@H](C)[C@@H]2CC3)cc1 [Example 101, methyl 3-[(6aS,7S,10aR)-9-cyano-2-[4-(methoxycarbonyl)phenyl]-7-methyl-8-oxo-6,6a,7,8-tetrahydrobenzo[h]quinazolin-10a(5H)-yl]benzoate] | 45.6 nM
C[C@@H]1C(=O)C(C#N)=C[C@]2(c3ccccc3)c3nc(-c4ccncc4)ncc3CC[C@@H]12 [Example 29, (6aS,7S,10aR)-7-methyl-8-oxo-10a-phenyl-2-(pyridin-4-yl)-5,6,6a,7,8,10a-hexahydrobenzo[h]quinazoline-9-carbonitrile] | 6.36 nM
Cc1nc(-c2cccc(CCCO)c2)c2c(n1)[C@@]1(c3ccccc3)C=C(C#N)C(=O)[C@@H](C)[C@@H]1CC2 [Example 110, (6aS,7S,10aR)-4-[3-(3-hydroxypropyl)phenyl]-2,7-dimethyl-8-oxo-10a-phenyl-5,6,6a,7,8,10a-hexahydrobenzo[h]quinazoline-9-carbonitrile] | 1.55 nM
CC(=O)OCCc1cccc(-c2nc(C)nc3c2CC[C@H]2[C@H](C)C(=O)C(C#N)=C[C@]32c2ccccc2)c1 [Example 46, 2-{3-[(6aS,7S,10aR)-9-cyano-2,7-dimethyl-8-oxo-10a-phenyl-5,6,6a,7,8,10a-hexahydrobenzo[h]quinazolin-4-yl]phenyl}ethyl acetate] | 7.52 nM
C[C@@H]1C(=O)C(C#N)=C[C@]2(c3ccccc3)c3nn(C)c(-c4cccc(-c5ccc(NS(C)(=O)=O)cc5)c4)c3CC[C@@H]12 [Example 169, N-{3′-[(5aS,6S,9aR)-8-cyano-2,6-dimethyl-7-oxo-9a-phenyl-4,5,5a,6,7,9a-hexahydro-2H-benzo[g]indazol-3-yl]biphenyl-4-yl}methanesulfonamide] | 8.77 nM
Cc1nc(-c2ccc(-c3cncnc3)cc2)c2c(n1)[C@@]1(c3ccccc3)C=C(C#N)C(=O)[C@@H](C)[C@@H]1CC2 [Example 129, (6aS,7S,10aR)-2,7-dimethyl-8-oxo-10a-phenyl-4-[4-(pyrimidin-5-yl)phenyl]-5,6,6a,7,8,10a-hexahydrobenzo[h]quinazoline-9-carbonitrile] | 13 nM
COc1nc(OC)c2c(n1)[C@@]1(c3ccccc3)C=C(C#N)C(=O)[C@@H](C)[C@@H]1CC2 [Example 103, (6aS,7S,10aR)-2,4-dimethoxy-7-methyl-8-oxo-10a-phenyl-5,6,6a,7,8,10a-hexahydrobenzo[h]quinazoline-9-carbonitrile] | 4.4 nM
C[C@@H]1C(=O)C(C#N)=C[C@]2(c3ccccc3)c3nn(C)c(-c4ccccc4)c3CC[C@@H]12 (racemic) [Example 2, rac-(5aS,6S,9aR)-2,6-dimethyl-7-oxo-3,9a-diphenyl-4,5,5a,6,7,9a-hexahydro-2H-benzo[g]indazole-8-carbonitrile] | 16.9 nM
Cc1nc(-c2cccc3c(Br)n[nH]c23)c2c(n1)[C@@]1(c3ccc(F)cc3)C=C(C#N)C(=O)[C@@H](C)[C@@H]1CC2 [Example 92, (6aS,7S,10aR)-4-(3-bromo-1H-indazol-7-yl)-10a-(4-fluorophenyl)-2,7-dimethyl-8-oxo-5,6,6a,7,8,10a-hexahydrobenzo[h]quinazoline-9-carbonitrile] | 31.7 nM
COC(=O)c1ccc(-c2ncc3c(n2)[C@@]2(c4ccccc4)C=C(C#N)C(=O)[C@@H](C)[C@@H]2CC3)cc1 [Example 75, methyl 4-[(6aS,7S,10aR)-9-cyano-7-methyl-8-oxo-10a-phenyl-5,6,6a,7,8,10a-hexahydrobenzo[h]quinazolin-2-yl]benzoate] | 12.7 nM
C[C@@H]1C(=O)C(C#N)=C[C@]2(c3ccc(F)cc3)c3nc(-c4cccnc4)ncc3CC[C@@H]12 [Example 51, (6aS,7S,10aR)-10a-(4-fluorophenyl)-7-methyl-8-oxo-2-(pyridin-3-yl)-5,6,6a,7,8,10a-hexahydrobenzo[h]quinazoline-9-carbonitrile] | 6.14 nM
CC(=O)n1cc(-c2nc(C)nc3c2CC[C@H]2[C@H](C)C(=O)C(C#N)=C[C@]32c2ccccc2)cn1 [Example 76, (6aS,7S,10aR)-4-(1-acetyl-1H-pyrazol-4-yl)-2,7-dimethyl-8-oxo-10a-phenyl-5,6,6a,7,8,10a-hexahydrobenzo[h]quinazoline-9-carbonitrile] | 1.91 nM
Cc1nc(-c2cccc3cn[nH]c23)c2c(n1)[C@@]1(c3ccc(F)cc3)C=C(C#N)C(=O)[C@@H](C)[C@@H]1CC2 [Example 93, (6aS,7S,10aR)-10a-(4-fluorophenyl)-4-(1H-indazol-7-yl)-2,7-dimethyl-8-oxo-5,6,6a,7,8,10a-hexahydrobenzo[h]quinazoline-9-carbonitrile] | 7.27 nM
C[C@@H]1C(=O)C(C#N)=C[C@]2(c3ccccc3)c3n[nH]c(-c4cccc(O)c4)c3CC[C@@H]12 [Example 88, (5aS,6S,9aR)-3-(3-hydroxyphenyl)-6-methyl-7-oxo-9a-phenyl-4,5,5a,6,7,9a-hexahydro-2H-benzo[g]indazole-8-carbonitrile] | 20.1 nM
C[C@@H]1C(=O)C(C#N)=C[C@]2(c3ccccc3)c3nc(C(C)(C)C)ncc3CC[C@@H]12 [Example 85, (6aS,7S,10aR)-2-tert-butyl-7-methyl-8-oxo-10a-phenyl-5,6,6a,7,8,10a-hexahydrobenzo[h]quinazoline-9-carbonitrile] | 33.8 nM
C[C@@H]1C(=O)C(C#N)=C[C@]2(c3ccccc3)c3n[nH]c(-c4cccc(NS(C)(=O)=O)c4)c3CCC12 (stereo partly drawn) [Example 113, N-{3-[(6S,9aR)-8-cyano-6-methyl-7-oxo-9a-phenyl-4,5,5a,6,7,9a-hexahydro-2H-benzo[g]indazol-3-yl]phenyl}methanesulfonamide] | 43 nM
C[C@@H]1C(=O)C(C#N)=C[C@]2(c3ccccc3)c3c(c(-c4ccccc4)nn3C)CC[C@@H]12 (racemic) [Example 3, rac-(5aS,6S,9aR)-1,6-dimethyl-7-oxo-3,9a-diphenyl-4,5,5a,6,7,9a-hexahydro-1H-benzo[g]indazole-8-carbonitrile] | 7.19 nM
C[C@@H]1C(=O)C(C#N)=C[C@]2(c3ccccc3)c3nc(-c4cccnc4)ncc3CC[C@@H]12 [Example 11, (6aS,7S,10aR)-7-methyl-8-oxo-10a-phenyl-2-(pyridin-3-yl)-5,6,6a,7,8,10a-hexahydrobenzo[h]quinazoline-9-carbonitrile] | 6.03 nM
CC(=O)OCCCc1cccc(-c2nc(C)nc3c2CC[C@H]2[C@H](C)C(=O)C(C#N)=C[C@]32c2ccccc2)c1 [Example 125, 3-{3-[(6aS,7S,10aR)-9-cyano-2,7-dimethyl-8-oxo-10a-phenyl-5,6,6a,7,8,10a-hexahydrobenzo[h]quinazolin-4-yl]phenyl}propyl acetate] | 4.69 nM
C[C@@H]1C(=O)C(C#N)=C[C@]2(c3ccccc3)c3n[nH]c(-c4cncnc4)c3CC[C@@H]12 [Example 87, (5aS,6S,9aR)-6-methyl-7-oxo-9a-phenyl-3-(pyrimidin-5-yl)-4,5,5a,6,7,9a-hexahydro-2H-benzo[g]indazole-8-carbonitrile] | 4.18 nM
C[C@@H]1C(=O)C(C#N)=C[C@]2(c3ccccc3)c3n[nH]c(-c4ccc(N)nc4)c3CC[C@@H]12 [Example 106, (5aS,6S,9aR)-3-(6-aminopyridin-3-yl)-6-methyl-7-oxo-9a-phenyl-4,5,5a,6,7,9a-hexahydro-2H-benzo[g]indazole-8-carbonitrile] | 8.77 nM
COC(=O)c1cccc([C@]23C=C(C(N)=O)C(=O)[C@@H](C)[C@@H]2CCc2cncnc23)c1 [Example 142, methyl 3-[(6aS,7S,10aR)-9-carbamoyl-7-methyl-8-oxo-6,6a,7,8-tetrahydrobenzo[h]quinazolin-10a(5H)-yl]benzoate] | 2280 nM
C[C@@H]1C(=O)C(C#N)=C[C@]2(c3ccc(F)cc3)c3ncncc3CC[C@@H]12 [Example 50, (6aS,7S,10aR)-10a-(4-fluorophenyl)-7-methyl-8-oxo-5,6,6a,7,8,10a-hexahydrobenzo[h]quinazoline-9-carbonitrile] | 10.3 nM
C[C@@H]1C(=O)C(C#N)=C[C@]2(c3ccc(F)cc3)c3n[nH]cc3CC[C@@H]12 [Example 54, (5aS,6S,9aR)-9a-(4-fluorophenyl)-6-methyl-7-oxo-4,5,5a,6,7,9a-hexahydro-2H-benzo[g]indazole-8-carbonitrile] | 35.5 nM
